Measurements: patent US7138361B2, “Herbicidal heterocycles” (E. I. du Pont de Nemours and Company, priority 2000, dated 2006)

Columns and labels:
Assay type in all cases: in vivo
[1] = test system: Surinam grass (Brachiaria decumbens); assay: Test B postemergence; details: 13 to 15 days
In short: (§1)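 Pre: seeded pots sprayed, chemical in non-phytotoxic solvent/surfactant mix. Post: plants 2–18 cm, 1–4 leaf, same formulation. Greenhouse 13–15 d; visual % control vs untreated, 0–100 scale.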

[2] = test system: barnyardgrass (Echinochloa crus-galli); assay: Test B postemergence; details: 13 to 15 days
In short: as §1

[3] = test system: blackgrass (Alopecurus myosuroides); assay: Test B postemergence; details: 13 to 15 days
In short: as §1

[4] = test system: cocklebur (Xanthium strumarium); assay: Test B postemergence; details: 13 to 15 days
In short: as §1

[5] = test system: corn (Zea mays); assay: Test B postemergence; details: 13 to 15 days
In short: as §1

[6] = test system: crabgrass (Digitaria sanguinalis); assay: Test B postemergence; details: 13 to 15 days
In short: as §1

[7] = test system: giant foxtail (Setaria faberii); assay: Test B postemergence; details: 13 to 15 days
In short: as §1

[8] = test system: lambsquarters (Chenopodium album); assay: Test B postemergence; details: 13 to 15 days
In short: as §1

[9] = test system: morning glory (Ipomoea hederacea); assay: Test B postemergence; details: 13 to 15 days
In short: as §1

[10] = test system: pigweed (Amaranthus retroflexus); assay: Test B postemergence; details: 13 to 15 days
In short: as §1

[11] = test system: velvetleaf (Abutilon theophrasti); assay: Test B postemergence; details: 13 to 15 days
In short: as §1

[12] = test system: wheat (Triticum aestivum); assay: Test B postemergence; details: 13 to 15 days
In short: as §1

[13] = test system: wild oat (Avena fatua); assay: Test B postemergence; details: 13 to 15 days
In short: as §1

[14] = test system: Surinam grass (Brachiaria decumbens); assay: Test B preemergence
In short: as §1

[15] = test system: barnyardgrass (Echinochloa crus-galli); assay: Test B preemergence
In short: as §1

[16] = test system: cocklebur (Xanthium strumarium); assay: Test B preemergence
In short: as §1

[17] = test system: corn (Zea mays); assay: Test B preemergence
In short: as §1

[18] = test system: crabgrass (Digitaria sanguinalis); assay: Test B preemergence
In short: as §1

[19] = test system: giant foxtail (Setaria faberii); assay: Test B preemergence
In short: as §1

[20] = test system: lambsquarters (Chenopodium album); assay: Test B preemergence
In short: as §1

[21] = test system: morning glory (Ipomoea hederacea); assay: Test B preemergence
In short: as §1

[22] = test system: pigweed (Amaranthus retroflexus); assay: Test B preemergence
In short: as §1

[23] = test system: rice (Oryza saliva); assay: Test B preemergence
In short: as §1

[24] = test system: velvetleaf (Abutilon theophrasti); assay: Test B preemergence
In short: as §1

[25] = test system: rice (Oryza saliva); assay: Test C flooded paddy test; details: for Rice plant response rating: Flooded Paddy, scale 0 to 100, 0 no effect, 100 complete control; for Plant response rating, Rice: flooded paddy test, scale 0 to 100 (0 no effect, 100 complete control)
In short: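 Rice and three paddy weeds were grown to the 2-leaf stage under flooded conditions, then treated and kept in a greenhouse for 12–14 days. Response was rated visually against untreated controls on a 0–100 scale, where 100 is complete control.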

[26] = test system: Nightshade; assay: Test C preemergence; details: visual evaluation after 12 to 14 days
[27] = test system: Sunflower; assay: Test C preemergence; details: scale 0 to 100, 0 no effect, 100 complete control
[28] = Rate 125 g/ha, scale 0 (no effect) to 100 (complete control)
[29] = Rate 500 g/ha, scale 0 to 100, 0 is no effect, 100 is complete control
[30] = Preemergence, Rate 500 g/ha, scale 0 to 100, 0 no effect, 100 complete control
[31] = preemergence, Rate 125 g/ha, scale 0 to 100, 0 no effect, 100 complete control
[32] = preemergence, Rate 125 g/ha, scale of 0 to 100 where 0 is no effect and 100 is complete control, 13 to 15 days

O=C1C(n2ccc(C3CCC3)n2)SCN1c1cccc(OC(F)(F)F)c1 (stereo not drawn) [Compound 38]
Plant response rating, Surinam grass [1, 28]: 0 | Plant response rating, Surinam grass [1, 29]: 0 | Plant response rating, Barnyardgrass [2, 28]: 100 | Plant response rating, Barnyardgrass [2, 29]: 100 | Plant response rating, Blackgrass [3, 28]: 0 | Plant response rating, Blackgrass [3, 29]: 0 | Plant response rating, Cocklebur [4, 28]: 40 | Plant response rating, Cocklebur [4, 29]: 80 | Plant response rating, Corn [5, 28]: 0 | Plant response rating, Corn [5, 29]: 0 | Plant response rating, Crabgrass [6, 28]: 60 | Plant response rating, Crabgrass [6, 29]: 100 | Plant response rating, Foxtail, Giant [7, 28]: 30 | Plant response rating, Foxtail, Giant [7, 29]: 80 | Plant response rating, Lambsquarters [8, 28]: 80 | Plant response rating, Lambsquarters [8, 29]: 90 | Plant response rating, Morningglory [9, 28]: 10 | Plant response rating, Morningglory [9, 29]: 20 | Plant response rating, Pigweed [10, 28]: 60 | Plant response rating, Pigweed [10, 29]: 80 | Plant response rating, Velvetleaf [11, 28]: 0 | Plant response rating, Velvetleaf [11, 29]: 70 | Plant response rating, Wheat [12, 28]: 0 | Plant response rating, Wheat [12, 29]: 0 | Plant response rating, Wild Oat [13, 28]: 0 | Plant response rating, Wild Oat [13, 29]: 0 | Plant response rating, Surinam grass [14, 30]: 60 | Plant response rating, Surinam grass [14, 31]: 0 | Plant response rating, Barnyardgrass [15, 30]: 100 | Plant response rating, Barnyardgrass [15, 31]: 70 | Plant response rating, Cocklebur [16, 30]: 0 | Plant response rating, Corn [17, 30]: 0 | Plant response rating, Corn [17, 31]: 0 | Plant response rating, Crabgrass [18, 30]: 100 | Plant response rating, Crabgrass [18, 31]: 0 | Plant response rating, Foxtail, Giant [19, 30]: 100 | Plant response rating, Foxtail, Giant [19, 31]: 0 | Plant response rating, Lambsquarters [20, 30]: 100 | Plant response rating, Lambsquarters [20, 31]: 100 | Plant response rating, Morningglory [21, 30]: 0 | Plant response rating, Pigweed [22, 30]: 100 | Plant response rating, Rice [23, 30]: 10 | Plant response rating, Velvetleaf [24, 30]: 0 | Rice plant response rating ([25]; Rate 250 g/ha): 50 | Rice plant response rating ([25]; Rate 500 g/ha): 80 | Plant response rating, Rice ([25]; Rate 62 g/ha): 20 | Plant response rating, Rice ([25]; Rate 125 g/ha): 30 | Plant response rating (0 to 100), Nightshade ([26]; Rate 250 g/ha): 60 | Plant response rating, Sunflower ([27]; Rate 125 g/ha): 0

CCC(C)c1ccn(C2CCN(c3ccc(C)c(OC)c3)C2=O)n1 (stereo not drawn) [Compound 80]
Plant response rating, Surinam grass [1, 28]: 0 | Plant response rating, Surinam grass [1, 29]: 0 | Plant response rating, Barnyardgrass [2, 28]: 0 | Plant response rating, Barnyardgrass [2, 29]: 10 | Plant response rating, Blackgrass [3, 28]: 0 | Plant response rating, Blackgrass [3, 29]: 0 | Plant response rating, Cocklebur [4, 28]: 70 | Plant response rating, Cocklebur [4, 29]: 80 | Plant response rating, Corn [5, 28]: 0 | Plant response rating, Corn [5, 29]: 0 | Plant response rating, Crabgrass [6, 28]: 0 | Plant response rating, Crabgrass [6, 29]: 40 | Plant response rating, Foxtail, Giant [7, 28]: 0 | Plant response rating, Foxtail, Giant [7, 29]: 0 | Plant response rating, Lambsquarters [8, 28]: 10 | Plant response rating, Lambsquarters [8, 29]: 90 | Plant response rating, Morningglory [9, 28]: 40 | Plant response rating, Morningglory [9, 29]: 90 | Plant response rating, Pigweed [10, 28]: 70 | Plant response rating, Pigweed [10, 29]: 80 | Plant response rating, Velvetleaf [11, 28]: 40 | Plant response rating, Velvetleaf [11, 29]: 70 | Plant response rating, Wheat [12, 28]: 0 | Plant response rating, Wheat [12, 29]: 0 | Plant response rating, Wild Oat [13, 28]: 0 | Plant response rating, Wild Oat [13, 29]: 0 | Plant response rating, Surinam grass [14, 30]: 90 | Plant response rating, Surinam grass [14, 32]: 80 | Plant response rating, Barnyardgrass [15, 30]: 100 | Plant response rating, Barnyardgrass [15, 32]: 0 | Plant response rating, Cocklebur [16, 30]: 0 | Plant response rating, Cocklebur [16, 32]: 0 | Plant response rating, Corn [17, 30]: 20 | Plant response rating, Corn [17, 32]: 0 | Plant response rating, Crabgrass [18, 30]: 100 | Plant response rating, Crabgrass [18, 32]: 100 | Plant response rating, Foxtail, Giant [19, 30]: 100 | Plant response rating, Foxtail, Giant [19, 32]: 100 | Plant response rating, Lambsquarters [20, 30]: 100 | Plant response rating, Lambsquarters [20, 32]: 100 | Plant response rating, Morningglory [21, 30]: 100 | Plant response rating, Morningglory [21, 32]: 60 | Plant response rating, Pigweed [22, 30]: 100 | Plant response rating, Pigweed [22, 32]: 100 | Plant response rating, Rice [23, 30]: 90 | Plant response rating, Rice [23, 32]: 60 | Plant response rating, Velvetleaf [24, 30]: 70 | Plant response rating, Velvetleaf [24, 32]: 0 | Rice plant response rating ([25]; Rate 250 g/ha): 70 | Rice plant response rating ([25]; Rate 500 g/ha): 90 | Plant response rating, Rice ([25]; Rate 125 g/ha): 50 | Plant response rating (0 to 100), Nightshade ([26]; Rate 500 g/ha): 100 | Plant response rating, Sunflower ([27]; Rate 250 g/ha): 60
